Results reported in patent US8188105B2, “Therapeutic agent for inflammatory bowel disease comprising uracil derivative as active ingredient” (Taiho Pharmaceutical Co., Ltd., priority 2007, dated 2012).

System: DSS-induced mouse colitis
Assay: Effect on improvement of pathological conditions in DSS-induced IBD model
Assay type: in vivo, mice (C57BL/6N Jcl)
Parameters: DAI Score (MEANS ± SD): scale not given here
Conditions: 2% DSS day 1 to day 7, drug 30 mg/kg/day day 0 to day 7; for Abnormal stool occurrence: mice with abnormal stool (loose stool, diarrhea, blood in stool) counted on day 8, n=6 per group, control 6, non-treatment 0; for DAI Score (MEANS ± SD): DAI scores per Table 1 (body weight loss, stool hardness, fecal occult blood), day 8, control 5.3 ± 2.1
Method: This test was performed in accordance with the method described in PEDIATRIC RESEARCH, Vol. 53, No. 1, 143-147, 2003. […] Dextran sulfate sodium (hereinafter abbreviated as “DSS,” product of Wako Pure Chemical Industries, Ltd.) was dissolved in purified water to 2% w/v, and the solution was fed ad libitum to the mice for seven days through a liquid-feed bottle (day 1 to day 7), to thereby establish ulcerative colitis models. The test groups included a drug-non-administration group (control), and a uracil derivative (1)-administration (30 mg/kg/day) group. A non-treatment group was provided through feeding purified water instead of 2% aqueous DSS solution. The drug was administered for eight days from one day before start of feeding 2% aqueous DSS solution (i.e., from day 0 to day 7). The improvement effect was determined on the day following the final drug administration day (on day 8) by counting occurrence of abnormal stools (loose stool, diarrhea, and visual observation of presence of blood in stool).

SMILES: CNCc1[nH]c(=O)[nH]c(=O)c1Cl [Compound 1, 5-chloro-6-(methylaminomethyl)uracil]
- Abnormal stool occurrence: 4

SMILES: N=C1NCCN1Cc1[nH]c(=O)[nH]c(=O)c1Cl [Compound 5, 5-chloro-6-(1-(2-iminoimidazolidinyl)methyl)uracil]
- DAI Score (MEANS ± SD): 0.28 ± 0.25
- Abnormal stool occurrence: 0

SMILES: O=c1[nH]c(CN2CCCC2)c(Br)c(=O)[nH]1 [Compound 6, 5-bromo-6-(1-pyrrolidinylmethyl)uracil]
- DAI Score (MEANS ± SD): 0.22 ± 0.27
- Abnormal stool occurrence: 2

SMILES: CN(CCO)Cc1[nH]c(=O)[nH]c(=O)c1Cl [Compound 3, 5-chloro-6-((N-(2-hydroxyethyl)-N-methylamino)methyl)uracil]
- Abnormal stool occurrence: 3

SMILES: Cl.O=c1[nH]c(CSc2nnc[nH]2)c(Cl)c(=O)[nH]1 [Compound 4, 5-chloro-6-(1,2,4-triazole-3-thiomethyl)uracil hydrochloride salt]
- DAI Score (MEANS ± SD): 0.22 ± 0.27
- Abnormal stool occurrence: 0

SMILES: O=c1[nH]c(CN2CCCC2)c(Cl)c(=O)[nH]1 [Compound 2, 5-chloro-6-(1-pyrrolidinylmethyl)uracil]
- Abnormal stool occurrence: 3
